≈ marks a conversion by molar mass, not a printed value.
What was measured:
A. flavus = assay: Minimum Inhibitory Concentration (MIC), RPMI medium; assay type: cell-based; conditions: Aspergillus flavus, >80% growth inhibition
Method: (§1) Between 1 and 5 mgs of the compound were accurately weighed out into a sterile Eppendorf tube. The compound was dissolved in DMSO to give a solution containing 5 mg/mL. Tubes were stored at −20° C. until required.
(§2) On the day of testing thawed solutions were vortex mixed to ensure homogeneity. 30 μL of solution was removed and added to 570 μL of sterile water in a separate sterile Eppendorf. The thoroughly mixed solution was used to prepare a series of doubling dilutions in water, in a deep well plate. Thirteen replicate plates were prepared using a Minitrak by aspirating 20 μL from each well into eleven clear polystyrene 96 well plates.
(§3) Spores of Aspergillus and Scedosporium were harvested from cultures grown on Sabarauds agar for 5 days, and resuspended in PBS/Tween 80 to approx 1×10^7 cfu/mL. Each organism suspension was diluted in RPMI medium, containing 2% glucose and 0.135 M MOPS buffer (pH 7.0) to 0.5-2×10^4 cfu/mL. 80 μL of an organism suspension was added to each well of the plate containing drug dilutions.
(§4) This produced MIC plates with a drug range 50-0.05 mg/L and organism inocula of 1-2×10^4 cfu/mL. All plates were incubated for 24-48 h at 35° C. Growth was assessed by monitoring the optical density at 485 nm for each well. The MIC of a compound is the lowest drug concentration that inhibits growth of an organism by >80% compared with a drug free control.

A. fumigatus 210 = assay: as above; assay type: cell-based; conditions: Aspergillus fumigatus, >80% growth inhibition
Method: as §1, §2, §3, §4

A. fumigatus = assay: as above; assay type: cell-based; conditions: Aspergillus fumigatus, >80% growth inhibition
Method: as §1, §2, §3, §4

A. niger = assay: as above; assay type: cell-based; conditions: Aspergillus niger, >80% growth inhibition
Method: as §1, §2, §3, §4

A. terreus 49 = assay: as above; assay type: cell-based; conditions: Aspergillus terreus, >80% growth inhibition
Method: as §1, §2, §3, §4

A. terreus = assay: as above; assay type: cell-based; conditions: Aspergillus terreus, >80% growth inhibition
Method: as §1, §2, §3, §4

[1] = system: Scedosporium apiospermum 13486; assay: as above; assay type: cell-based; conditions: for MIC: Scedosporium apiospermum, 13486
Method: as §1, §2, §3, §4

[2] = system: Scedosporium apiospermum 15848; assay: as above; assay type: cell-based
Method: as §1, §2, §3, §4

[3] = system: Scedosporium apiospermum 451; assay: as above; assay type: cell-based
Method: as §1, §2, §3, §4

[4] = system: Scedosporium apiospermum 4883; assay: as above; assay type: cell-based
Method: as §1, §2, §3, §4

[5] = system: Scedosporium apiospermum 7935; assay: as above; assay type: cell-based
Method: as §1, §2, §3, §4

[6] = system: Scedosporium apiospermum 8353; assay: as above; assay type: cell-based
Method: as §1, §2, §3, §4

[7] = system: Scedosporium prolificans 18389; assay: as above; assay type: cell-based; conditions: Lomentospora prolificans
Method: as §1, §2, §3, §4

[8] = system: Scedosporium prolificans 206; assay: as above; assay type: cell-based; conditions: Lomentospora prolificans
Method: as §1, §2, §3, §4

[9] = system: Scedosporium prolificans 6322; assay: as above; assay type: cell-based; conditions: Lomentospora prolificans
Method: as §1, §2, §3, §4

[10] = system: Scedosporium species 15849; assay: as above; assay type: cell-based
Method: as §1, §2, §3, §4

[11] = system: A. fumigatus strain A1163; assay: Murine survival model of Aspergillus fumigatus infection (survival, kidney burden, serum galactomannan); assay type: in vivo, male CD-1 mice; conditions: positive control; 10 mg/kg b.i.d. by the oral route; A. fumigatus infected mice
Method: Murine survival models are frequently used to assess the efficacy of antifungal drugs against Aspergillus. The models used in the development of Example 1 were carried out at Euprotec Ltd (Manchester) a contract research organisation (CRO) with extensive experience in the evaluation of antifungal drugs. The typical model involves the use of groups of 6-10 male CD-1 mice per treatment group. Mice are immunosuppressed with 200 mg/kg cyclophosphamide injected intraperitoneal 3 days prior to infection. A. fumigatus strain A1163 is cultured on Sabourauds agar for 4-6 days at 35° C. Spores are harvested in phosphate buffered saline (PBS)/Tween, the suspension diluted and the number of spores enumerated. Mice are then infected with an intravenous injection of A. fumigatus spores given through the lateral tail vein. The typical inoculum is 6-8×10^4 cfu/mouse and is sufficient to kill all untreated animals by Day 4-6. The animals die of IA and Aspergillus organisms can be detected in many body tissues. Treatment is typically commenced soon after infection but delays of up to 24 h following infection produce a more challenging model. Treatment is continued for 7-9 days. Treatment may be up to 3 times daily using an oral dosing. Following cessation of treatment, animals are observed for 1-2 days, and then sacrificed. Relevant controls treated with oral drug-free vehicle are always included; ideally there should be no survivors in this group. A positive control consisting of an antifungal drug such as Reference Example 10 was used. This compound consistently produces 100% survival at doses of 10 mg/kg b.i.d. dosed by the oral route. Most models are run as temporary neutropenic models where only a single dose of cyclophosphamide is administered.
The fungal burden in the kidney can be determined on animals surviving to the end of the study and this can help provide efficacy discrimination between groups where all animals survive. Tissue burdens are carried out by removing the kidneys from animals when they are culled at the end of the study. These are homogenised in saline and plated onto Sabourauds agar and incubated at 35° C. for 72 h. Aspergillus colonies are counted and the amount of aspergillus per gram of kidney calculated. The results are expressed as colony forming units per gramme (cfu/g). […] However, data from studies where tissue burden has been carried out on untreated animals at day 4 or 5 has shown that tissue burdens are typically in excess of 20,000 cfu/g and may exceed 100,000 cfu/g in some studies.
In some of the survival studies described below serum samples were collected from surviving mice at the end of the study or on mice that succumbed to infection during the study to examine the effect of Example 1 on galactomannan levels and to see if there was a relationship between galactomannan levels and survival.
The galactomannan assays were carried out on serum samples that had been stored frozen at −80° C. Samples were thawed and assayed using a Platelia Aspergillus Ag enzyme-linked immunosorbent assay (ELISA) kit (Biorad). The assay was modified slightly to take into account the small sample volumes available from mice. If assay results were high a repeat test was carried out on a sample diluted in normal mouse serum. The amount of galactomannan in a sample is presented as a galactomannan index. The mean galactomannan index for each group was calculated and is presented graphically against each treatment regimen.
The survival study carried assessed the dose response of Example 1. Example 1 was dosed orally to A. fumigatus infected mice at 2 dose levels 10 mg/kg b.i.d. and 3 mg/kg b.i.d. Therapy was initiated at 24 h post infection and therapy continued for 8 days. At the end of the study kidney burdens were measured on surviving animals. In addition serum samples were taken at the end of the study from all surviving animals and from each animal that died during the course of the study. […]

L. prolificans FMR 3569 = assay: Lomentospora prolificans FMR 3569 disseminated infection model (survival, tissue burden); assay type: in vivo, Male OF-1 mice; conditions: VRC 25 mg/kg p.o. QD; Example 1 20 mg/k p.o. BID; from day 1 after challenge for 9 days
Method: L. prolificans (also known as Scedosporium prolificans or S. prolificans) was grown on Potato Dextrose Agar (PDA) for 5 days at 35° C. On the day of infection, cultures were flooded with sterile saline and filtered through sterile gauze to remove clumps of conidia and hyphae. The resulting suspensions were adjusted by haemocytometer count and by serial plating to confirm viability.
Male OF-1 mice with a mean weight of 30 g were used in the experiment. Mice were housed in standard boxes with food and water ad libitum.
Mice were rendered neutropenic two days prior to infection by an intraperitoneal (i.p.) injection of 200 mg/kg of cyclophosphamide, and once every 5 days thereafter (Clemons et al, 2005).
Mice were challenged with 5×10^4 CFU/animal of L. prolificans FMR 3569, in a volume of 0.2 ml of sterile saline into the lateral tail vein.
Treatments consisted of (a) voriconazole (VRC) (Vfend; Pfizer S. A., Madrid, Spain) at 25 mg/kg p.o, by gavage QD; (b) Example 1 at 20 mg/k, p.o, by gavage BID; and (c) no treatment. From 3 days before infection, mice that received VRC were given grapefruit juice instead of water (Sugar & Liu, 2001). All treatments began 1 day after challenge, and the therapy lasted for 9 days. Controls received no treatment.
For survival studies groups of 10 mice were randomly established for each therapy. Mortality was recorded daily until the end of the experiment. […]

SMILES	MIC (A. flavus)	MIC (A. fumigatus 210)	MIC (A. fumigatus)	MIC (A. niger)	MIC (A. terreus 49)	MIC (A. terreus)	MIC Scedosporium apiospermum 13486 [1]	MIC [1]	MIC [2]	MIC [3]	MIC [4]	MIC [5]	MIC [6]	MIC [7]	MIC [8]	MIC [9]	MIC [10]	survival [11]	survival rates compared with the control (FIG. 7) (L. prolificans FMR 3569)
Cc1cc(C)nc(N2CCN(c3ccc(NC(=O)C(=O)c4c(-c5ccccc5)cc(C)n4C)cc3)CC2)c1 [Ref. Example 10, 2-(1,5-Dimethyl-3-phenyl-1H-pyrrol-2-yl)-N-{4-[4-(4,6-dimethyl-pyridin-2-yl)-piperazin-1-yl]-phenyl}-2-oxo-acetamide]	0.04 to 0.06 µg/mL (≈ 0.0788 to 0.118 µM)	0.02 to 0.04 µg/mL (≈ 0.0394 to 0.0788 µM)	0.02 to 0.04 µg/mL (≈ 0.0394 to 0.0788 µM)	> 0.06 µg/mL	0.02 to 0.04 µg/mL (≈ 0.0394 to 0.0788 µM)	0.02 to 0.04 µg/mL (≈ 0.0394 to 0.0788 µM)	F (a grade of F represents an MIC of greater than 0.06 mg/L)	> 0.06 µg/mL	> 0.06 µg/mL	> 0.06 µg/mL	0.02 to 0.04 µg/mL (≈ 0.0394 to 0.0788 µM)	> 0.06 µg/mL	0.04 to 0.06 µg/mL (≈ 0.0788 to 0.118 µM)	> 0.06 µg/mL	> 0.06 µg/mL	0.04 to 0.06 µg/mL (≈ 0.0788 to 0.118 µM)	> 0.06 µg/mL	100%	–
Cc1cc(-c2ccccc2)c(C(=O)C(=O)Nc2ccc(N3CCN(c4ccccn4)CC3)cc2)n1C [Ref. Example 6, 2-(1,5-Dimethyl-3-phenyl-1H-pyrrol-2-yl)-2-oxo-N-[4-(4-pyridin-2-yl-piperazin-1-yl)-phenyl]-acetamide]	0.04 to 0.06 µg/mL (≈ 0.0834 to 0.125 µM)	0.04 to 0.06 µg/mL (≈ 0.0834 to 0.125 µM)	0.04 to 0.06 µg/mL (≈ 0.0834 to 0.125 µM)	> 0.06 µg/mL	0.04 to 0.06 µg/mL (≈ 0.0834 to 0.125 µM)	0.04 to 0.06 µg/mL (≈ 0.0834 to 0.125 µM)	F (a grade of F represents an MIC of greater than 0.06 mg/L)	> 0.06 µg/mL	> 0.06 µg/mL	> 0.06 µg/mL	> 0.06 µg/mL	> 0.06 µg/mL	> 0.06 µg/mL	> 0.06 µg/mL	> 0.06 µg/mL	> 0.06 µg/mL	> 0.06 µg/mL	–	–
C[C@@H](c1ncncc1F)[C@](O)(Cn1cncn1)c1ccc(F)cc1F [VRC, voriconazole]	–	–	–	–	–	–	–	–	–	–	–	–	–	–	–	–	–	–	no significant increase
Cc1cc(-c2ccccc2)c(C(=O)C(=O)Nc2ccc(N3CCN(c4ccccn4)CC3)c(F)c2)n1C [Ref. Example 1, 2-(1,5-Dimethyl-3-phenyl-1H-pyrrol-2-yl)-N-[3-fluoro-4-(4-pyridin-2-yl-piperazin-1-yl)-phenyl]-2-oxo-acetamide]	> 0.06 µg/mL	0.04 to 0.06 µg/mL (≈ 0.0804 to 0.121 µM)	0.04 to 0.06 µg/mL (≈ 0.0804 to 0.121 µM)	0.04 to 0.06 µg/mL (≈ 0.0804 to 0.121 µM)	0.04 to 0.06 µg/mL (≈ 0.0804 to 0.121 µM)	0.04 to 0.06 µg/mL (≈ 0.0804 to 0.121 µM)	–	–	–	–	–	–	–	–	–	–	–	–	–
Cc1cc(C)nc(N2CCN(c3ccc(NC(=O)C(=O)c4c(-c5ccccc5)cc(C)n4C)cc3O)CC2)c1 [Ref. Example 7, 2-(1,5-Dimethyl-3-phenyl-1H-pyrrol-2-yl)-N-{4-[4-(4,6-dimethyl-pyridin-2-yl)-piperazin-1-yl]-3-hydroxy-phenyl}-2-oxo-acetamide]	0.04 to 0.06 µg/mL (≈ 0.0764 to 0.115 µM)	> 0.06 µg/mL	> 0.06 µg/mL	> 0.06 µg/mL	> 0.06 µg/mL	> 0.06 µg/mL	–	–	–	–	–	–	–	–	–	–	–	–	–

Source: patent US10596150B2, “Antifungal agents” (F2G LIMITED, priority 2014, dated 2020)
